Experimental data from ChEMBL document CHEMBL1149411, “Application of fragment screening and fragment linking to the discovery of novel thrombin inhibitors” (J Med Chem, 2006).
The source made the active and inactive calls. No cut-off for these calls is given here.

Key:
Trypsin = Trypsin (Homo sapiens, UniProt P07477+P07478+P35030); assay: Inhibitory activity against trypsin; type: protein assay
Prothrombin [1] = target: T1, Prothrombin (Homo sapiens, UniProt P00734); assay: Inhibitory activity against Thrombin
Prothrombin [2] = target: T1, Prothrombin; assay: Inhibition of Thrombin at 300 uM

COc1cc(C)c(S(=O)(=O)NC[C@@H](O)[C@H](Cc2ccccc2)NCc2cccc(Cl)c2)c(C)c1C
IC50 (Trypsin): > 100000 nM

COc1cc(C)c(S(=O)(=O)NC[C@@H](O)[C@H](Cc2ccccc2)NCc2cc(Cl)ccc2-n2cnnn2)c(C)c1C
IC50 (Prothrombin [1]): 1.4 nM

NCc1cccc(Cl)c1
inhibition (Prothrombin [2]): inactive
